ChEMBL document CHEMBL5033993, “Design, Synthesis, and Evaluation of o-(Biphenyl-3-ylmethoxy)nitrophenyl Derivatives as PD-1/PD-L1 Inhibitors with Potent Anticancer Efficacy In Vivo” (J Med Chem, 2021)
Calls of active or inactive are those of the source. No cut-off for these calls is given here.

How the values were obtained:
[1] = target: Programmed cell death protein 1/Programmed cell death 1 ligand 1 (Homo sapiens, UniProt Q15116+Q9NZQ7); assay: Inhibition of human PD-1/PD-L1 interaction assessed as disruption of PD-1/PD-L1 complex incubated for 2 hrs by Tag-1 Eu3+ and anti-Tag2-XL665 based HTRF assay; format: protein-complex assay
Chain of Programmed cell death protein 1/Programmed cell death 1 ligand 1 (Q15116 whole entry): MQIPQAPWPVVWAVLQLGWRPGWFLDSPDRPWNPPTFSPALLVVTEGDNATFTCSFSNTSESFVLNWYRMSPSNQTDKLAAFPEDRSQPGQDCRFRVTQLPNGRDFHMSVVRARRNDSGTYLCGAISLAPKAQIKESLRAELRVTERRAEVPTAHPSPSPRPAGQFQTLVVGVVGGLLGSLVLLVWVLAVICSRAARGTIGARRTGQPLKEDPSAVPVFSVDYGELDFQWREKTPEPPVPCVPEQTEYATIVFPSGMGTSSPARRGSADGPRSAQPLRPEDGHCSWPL
Chain of Programmed cell death protein 1/Programmed cell death 1 ligand 1 (Q9NZQ7 whole entry): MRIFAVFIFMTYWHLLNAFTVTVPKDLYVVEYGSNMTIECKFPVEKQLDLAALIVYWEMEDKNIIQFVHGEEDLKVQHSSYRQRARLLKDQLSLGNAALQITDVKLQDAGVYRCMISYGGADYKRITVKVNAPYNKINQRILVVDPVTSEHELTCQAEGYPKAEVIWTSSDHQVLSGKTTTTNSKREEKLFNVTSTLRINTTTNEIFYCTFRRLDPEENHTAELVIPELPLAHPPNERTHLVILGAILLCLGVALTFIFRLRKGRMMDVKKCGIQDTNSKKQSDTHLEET

[2] = test system: Mus musculus; assay: Toxicity in C57BL6 mouse allografted with mouse lewis lung carcinoma cells assessed as reduction body weight at 5 mg/kg, ig for 21 days; format: organism-based; conditions: in vivo, po, 504 h, time 21 day
[3] = Anti-tumor activity against mouse lewis lung carcinoma cells allografted in C57BL6 mouse assessed as reduction in tumor growth at 5 mg/kg, ig for 21 days relative to control; format: functional; conditions: po, 504 h, time 21 day, read-out: TGI
[4] = test system: Mus musculus; assay: Upregulation of IFNgamma protein expression in C57BL6 mouse serum allografted with mouse lewis lung carcinoma cells at 5 mg/kg, ig for 21 days by ELISA; format: functional, organism-based; conditions: time 21.0 day

With `Cc1c(COc2ccc(CNC(C)(CO)CO)cc2[N+](=O)[O-])cccc1-c1ccccc1` the IC50 [1] was 92.1 nM.

Molecule `Cc1c(COc2ccc(CN3CCC[C@H]3C(=O)O)cc2[N+](=O)[O-])cccc1-c1ccccc1` has an IC50 [1] of 45.2 nM.

With `Cc1c(COc2ccc(CN3CCCC[C@H]3C(=O)N[C@@H](CO)C(=O)O)cc2[N+](=O)[O-])cccc1-c1ccccc1` the IC50 [1] was 12.4 nM.

In the case of `Cc1c(COc2ccc(CN[C@@H](CO)C(=O)O)c(OCc3cccc(C#N)c3)c2)cccc1-c1ccccc1`, the IC50 [1] is reported as 30.2 nM, the Activity [2] is reported as “Non-Toxic” and the inhibition in vivo at 5 mg/kg [3] is reported as 17.8%. For the same molecule, the Activity [4] was “Active”.

Molecule `Cc1c(COc2ccc(CN3CCC[C@H]3C(=O)NC(C)(CO)CO)cc2[N+](=O)[O-])cccc1-c1ccccc1` has an IC50 [1] of 49.4 nM.

Molecule `CC(=O)NCCNCc1ccc(OCc2cccc(-c3ccccc3)c2C)c([N+](=O)[O-])c1` has an IC50 [1] of 13.1 nM.

For `Cc1c(COc2cc(OCc3cccc(C#N)c3)c(CNC(CO)CO)cc2[N+](=O)[O-])cccc1-c1ccccc1`, the IC50 [1] was 7.8 nM.

`Cc1c(COc2ccc(CNCCN(C)C)cc2[N+](=O)[O-])cccc1-c1ccccc1` gave an IC50 [1] of 37.7 nM.

`Cc1c(COc2cc(OCc3ccnc(C#N)c3)c(CN3CCCC[C@H]3C(=O)O)cc2[N+](=O)[O-])cccc1-c1ccccc1` showed an IC50 [1] of 10.2 nM.

In the case of `Cc1c(COc2cc(OCc3cccnc3)c(CN[C@@H](CO)C(=O)O)cc2[N+](=O)[O-])cccc1-c1ccccc1`, the IC50 [1] is reported as 17.9 nM.

Work on `Cc1c(COc2cc(OCc3cccc(C#N)c3)c(CN3CCCC[C@H]3C(=O)O)cc2[N+](=O)[O-])cccc1-c1ccccc1` yielded an IC50 [1] of 5.65 nM.

With `Cc1c(COc2ccc(CN(C)CC(=O)O)cc2[N+](=O)[O-])cccc1-c1ccccc1` the IC50 [1] was 20.9 nM.

In the case of `C[C@@H](O)[C@H](NCc1ccc(OCc2cccc(-c3ccccc3)c2Br)c([N+](=O)[O-])c1)C(=O)O`, the IC50 [1] is reported as 353 nM.

For `CSCC[C@H](NCc1ccc(OCc2cccc(-c3ccccc3)c2C)c([N+](=O)[O-])c1)C(=O)O`, the IC50 [1] was 17.8 nM.

In the case of `Cc1c(COc2ccc(CN3CCCC[C@H]3C(=O)N3CCC[C@H]3C(=O)O)cc2[N+](=O)[O-])cccc1-c1ccccc1`, the IC50 [1] is reported as 14.8 nM.

Work on `CC(=O)NCCNC(=O)[C@@H]1CCCN1Cc1ccc(OCc2cccc(-c3ccccc3)c2C)c([N+](=O)[O-])c1` yielded an IC50 [1] of 56.4 nM.

Molecule `Cc1c(COc2ccc(CN3CCCC[C@H]3C(=O)N[C@@H](C)C(=O)O)cc2[N+](=O)[O-])cccc1-c1ccccc1` has an IC50 [1] of 12.7 nM.

With `Cc1c(COc2ccc(CNCCC(=O)O)cc2[N+](=O)[O-])cccc1-c1ccccc1` the IC50 [1] was 39.5 nM.

For `CC(=O)NCCNCc1cc([N+](=O)[O-])c(OCc2cccc(-c3ccccc3)c2C)cc1OCc1cccc(C#N)c1`, the IC50 [1] was 8.11 nM.

`Cc1c(COc2cc(OCc3ccnc(C#N)c3)c(CN[C@H](C(=O)O)[C@@H](C)O)cc2[N+](=O)[O-])cccc1-c1ccccc1` gave an IC50 [1] of 10.2 nM.

For `Cc1c(COc2cc(OCc3cccnc3)c(CN3CCCC[C@H]3C(=O)O)cc2[N+](=O)[O-])cccc1-c1ccccc1`, the IC50 [1] was 8.75 nM.

Molecule `Cc1c(COc2ccc(CN3CCC[C@H]3C(=O)N(C)CC(O)CO)cc2[N+](=O)[O-])cccc1-c1ccccc1` (stereo partly specified) has an IC50 [1] of 9.98 nM.

In the case of `Cc1c(COc2ccc(CNCC(C)(C)O)cc2[N+](=O)[O-])cccc1-c1ccccc1`, the IC50 [1] is reported as 46.7 nM.

In the case of `Cc1c(COc2ccc(CN[C@H](C(=O)O)[C@@H](C)O)cc2[N+](=O)[O-])cccc1-c1ccccc1`, the IC50 [1] is reported as 61 nM.

Work on `Cc1c(COc2ccc(CN3CCC[C@H]3C(=O)N[C@@H](CO)C(=O)O)cc2[N+](=O)[O-])cccc1-c1ccccc1` yielded an IC50 [1] of 73.2 nM.

Molecule `Cc1c(COc2cc(OCc3cccc(C#N)c3)c(CN3CCCC[C@H]3C(=O)N[C@@H](CO)C(=O)O)cc2[N+](=O)[O-])cccc1-c1ccccc1` has an IC50 [1] of 8.01 nM.

Molecule `Cc1c(COc2ccc(CN[C@@H](CO)C(=O)O)cc2[N+](=O)[O-])cccc1-c1ccccc1` has an IC50 [1] of 27.7 nM.

`Cc1c(COc2cc(OCc3cccnc3)c(CN[C@H](C(=O)O)[C@@H](C)O)cc2[N+](=O)[O-])cccc1-c1ccccc1` showed an IC50 [1] of 15.5 nM.

With `Cc1c(COc2ccc(CN(CCO)CCO)cc2[N+](=O)[O-])cccc1-c1ccccc1` the IC50 [1] was 21.4 nM.

`Cc1c(COc2cc(OCc3cccc(C#N)c3)c(CNCCO)cc2[N+](=O)[O-])cccc1-c1ccccc1` showed an IC50 [1] of 3.59 nM.

`Cc1c(COc2ccc(CNCCCNC(CO)CO)cc2[N+](=O)[O-])cccc1-c1ccccc1` gave an IC50 [1] of 28.7 nM.

Molecule `Cc1c(COc2cc(OCc3cccc(C#N)c3)c(CN3CCC[C@H]3C(=O)O)cc2[N+](=O)[O-])cccc1-c1ccccc1` has an IC50 [1] of 22.7 nM.

Molecule `CCC(CO)(CO)NC(=O)[C@@H]1CCCN1Cc1ccc(OCc2cccc(-c3ccccc3)c2C)c([N+](=O)[O-])c1` has an IC50 [1] of 82.3 nM.

`Cc1c(COc2ccc(CN3CCC[C@H]3C(=O)N[C@@H](C)CO)cc2[N+](=O)[O-])cccc1-c1ccccc1` gave an IC50 [1] of 61.8 nM.

With `Cc1c(COc2cc(OCc3cccc(C#N)c3)c(CN(C)CC(=O)O)cc2[N+](=O)[O-])cccc1-c1ccccc1` the IC50 [1] was 7.44 nM.

Work on `Cc1c(COc2ccc(CN3CCC[C@H]3C(=O)NCCO)cc2[N+](=O)[O-])cccc1-c1ccccc1` yielded an IC50 [1] of 55.7 nM.

In the case of `Cc1c(COc2ccc(CN3CCC[C@H]3C(=O)N[C@H](C(=O)O)[C@@H](C)O)cc2[N+](=O)[O-])cccc1-c1ccccc1`, the IC50 [1] is reported as 55.6 nM.

Molecule `Cc1c(COc2cc(OCc3cccc(C#N)c3)c(CN3CCCC[C@H]3C(=O)NCC(C)(C)O)cc2[N+](=O)[O-])cccc1-c1ccccc1` has an IC50 [1] of 4.77 nM.

Molecule `Cc1c(COc2ccc(CN3CCCC[C@H]3C(=O)O)cc2[N+](=O)[O-])cccc1-c1ccccc1` has an IC50 [1] of 8.78 nM.

`Cc1c(COc2ccc(CNCc3ccoc3)cc2[N+](=O)[O-])cccc1-c1ccccc1` gave an IC50 [1] of 87.4 nM.

`Cc1c(COc2ccc(CN3CCC[C@H]3C(=O)NCC(C)(C)O)cc2[N+](=O)[O-])cccc1-c1ccccc1` showed an IC50 [1] of 71.2 nM.

For `Cc1c(COc2cc(OCc3cccc(C#N)c3)c(CN[C@@H](CO)C(=O)O)cc2[N+](=O)[O-])cccc1-c1ccccc1`, the IC50 [1] was 13 nM.

In the case of `Cc1c(COc2ccc(CNCCO)cc2[N+](=O)[O-])cccc1-c1ccccc1`, the IC50 [1] is reported as 11.8 nM.

In the case of `Cc1c(COc2ccc(CNC(CO)CO)cc2[N+](=O)[O-])cccc1-c1ccccc1`, the IC50 [1] is reported as 8.91 nM.

Work on `Cc1c(COc2ccc(CN3CCCC[C@H]3C(=O)NCC(C)(C)O)cc2[N+](=O)[O-])cccc1-c1ccccc1` yielded an IC50 [1] of 12.1 nM.

Molecule `Cc1c(COc2cc(OCc3cccc(C#N)c3)c(CN3CCCC[C@H]3C(=O)N3CCC[C@H]3C(=O)O)cc2[N+](=O)[O-])cccc1-c1ccccc1` has an IC50 [1] of 4.31 nM.

`Cc1c(COc2ccc(CN3CCCC[C@H]3C(=O)N[C@H](C(=O)O)[C@@H](C)O)cc2[N+](=O)[O-])cccc1-c1ccccc1` gave an IC50 [1] of 26.7 nM.

`Cc1c(COc2cc(OCc3ccnc(C#N)c3)c(CN[C@@H](CO)C(=O)O)cc2[N+](=O)[O-])cccc1-c1ccccc1` showed an IC50 [1] of 9.33 nM.
